Assay results as given in article PMC3742539, “ε Subunit of Bacillus subtilis F1-ATPase Relieves MgADP Inhibition” (PLoS ONE, 2013).

Assays:
[1] = target: T1, α3β3γ complex of BF1 (F1-ATPase from Bacillus subtilis) (Bacillus subtilis, UniProt P37808+P37809); experiment: residual initial ATPase activity ([…]-4 s) after preincubation with MgADP; type: biochemical; settings: read-out: % inhibition at 1:1 MgADP (5 μM)
T1 construct: gene atpD; recombinant α3β3γ subcomplex without δ and ε; His6-tag at N-terminus of β (kept); initiation codons of α and γ changed to ATG; expressed in E. coli BL21(DE3) from pET21-BF1; nucleotide-free; with ATP synthase gamma chain

[2] = target: T2, α3β3γε complex of BF1 (F1-ATPase from Bacillus subtilis) (Bacillus subtilis, UniProt P37808+P37809); experiment: as above; type: biochemical; settings: read-out: % inhibition at 1:1 MgADP (5 μM)
T2 construct: gene atpD; recombinant α3β3γ (His6-tag at N-terminus of β, kept) reconstituted with excess separately purified BF1 ε subunit; no δ; E. coli expression; with ATP synthase gamma chain; ATP synthase epsilon chain
T2 sequence (P37812 whole entry): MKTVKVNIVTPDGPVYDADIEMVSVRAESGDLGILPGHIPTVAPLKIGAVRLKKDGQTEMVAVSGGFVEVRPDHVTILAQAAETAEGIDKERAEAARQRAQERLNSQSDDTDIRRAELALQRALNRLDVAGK
T2 sequence (P37809 whole entry): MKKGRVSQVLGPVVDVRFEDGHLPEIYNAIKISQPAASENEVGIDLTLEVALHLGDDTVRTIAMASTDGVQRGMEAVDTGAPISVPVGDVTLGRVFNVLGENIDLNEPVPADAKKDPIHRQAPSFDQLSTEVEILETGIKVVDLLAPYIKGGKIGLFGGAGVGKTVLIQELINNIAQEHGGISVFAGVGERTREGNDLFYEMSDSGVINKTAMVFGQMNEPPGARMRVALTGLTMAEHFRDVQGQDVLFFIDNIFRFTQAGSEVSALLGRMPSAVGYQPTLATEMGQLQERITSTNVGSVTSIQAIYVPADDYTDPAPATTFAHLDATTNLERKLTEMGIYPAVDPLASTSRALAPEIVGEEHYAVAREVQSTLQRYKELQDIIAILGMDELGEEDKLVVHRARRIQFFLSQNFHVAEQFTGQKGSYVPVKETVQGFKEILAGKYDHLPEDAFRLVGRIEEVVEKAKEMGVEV
T2 sequence (P37808 2-502): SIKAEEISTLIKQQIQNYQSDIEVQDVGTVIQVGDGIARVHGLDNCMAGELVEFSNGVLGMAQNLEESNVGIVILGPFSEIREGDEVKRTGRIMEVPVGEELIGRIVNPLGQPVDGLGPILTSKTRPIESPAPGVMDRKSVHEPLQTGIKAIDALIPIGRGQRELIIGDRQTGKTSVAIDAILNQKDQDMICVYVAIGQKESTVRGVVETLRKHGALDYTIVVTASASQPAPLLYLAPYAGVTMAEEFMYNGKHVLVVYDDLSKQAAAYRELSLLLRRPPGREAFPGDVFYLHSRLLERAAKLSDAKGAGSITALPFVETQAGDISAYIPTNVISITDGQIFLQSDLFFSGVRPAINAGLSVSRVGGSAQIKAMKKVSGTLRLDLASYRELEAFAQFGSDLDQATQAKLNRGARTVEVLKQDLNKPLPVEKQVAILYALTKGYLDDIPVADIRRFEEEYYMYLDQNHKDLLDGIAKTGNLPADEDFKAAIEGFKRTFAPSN
T2 sequence (P37810 whole entry, further chain): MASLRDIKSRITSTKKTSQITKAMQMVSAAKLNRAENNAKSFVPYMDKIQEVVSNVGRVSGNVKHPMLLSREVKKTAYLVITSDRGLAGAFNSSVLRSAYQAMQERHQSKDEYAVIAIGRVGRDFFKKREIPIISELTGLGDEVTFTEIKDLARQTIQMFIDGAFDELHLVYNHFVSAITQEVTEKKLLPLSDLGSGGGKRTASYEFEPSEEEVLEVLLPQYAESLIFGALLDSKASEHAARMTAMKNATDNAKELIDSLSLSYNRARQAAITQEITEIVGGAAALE

T1 sequence (P37809 whole entry): as the sequence (P37809 whole entry) above
T1 sequence (P37808 2-502): as the sequence (P37808 2-502) above
T1 sequence (P37810 whole entry, further chain): as the sequence (P37810 whole entry, further chain) above

In the case of `Nc1ncnc2c1ncn2[C@@H]1O[C@H](COP(=O)(O)OP(=O)(O)O)[C@@H](O)[C@H]1O` [MgADP], the inhibition at 5 µM [1] is reported as ~50% and the inhibition at 5 µM [2] is reported as ~20%.
